In series [1] the target is Ca2+ channel (L, diltiazem site) (benzothiazepines); voltage-gated L-type calcium channel (Homo sapiens, UniProt O60840+Q01668+Q13698+Q13936). As to the kind of experiment: Ca2+ channel (L, diltiazem site) (benzothiazepines) CEREP ligand profiling. It is filed as protein assay. The settings on record: compound concentration 10 uM.
Series [2] addresses Delta-type opioid receptor (Homo sapiens) (UniProt P41143). The settings on record: Compound concentration 10.0 uM.
Series [3] concerns the target Sodium-dependent dopamine transporter (Homo sapiens) (UniProt Q01959). As to the kind of experiment: DA transporter (h) CEREP ligand profiling. The settings on record: Compound concentration 10.0 uM.
Series [4] has as its target Voltage-dependent N-type calcium channel subunit alpha-1B (Homo sapiens) (UniProt Q00975). As to the kind of experiment: Ca2+ channel (N) CEREP ligand profiling. As to conditions: Compound concentration 10.0 uM.
A further series addresses Cannabinoid receptor 1 (Homo sapiens, UniProt P21554). As to the kind of experiment: CB1 (h) CEREP ligand profiling.
For series [5], the target named is 5-hydroxytryptamine receptor 2A (Homo sapiens, UniProt P28223). As to the kind of experiment: 5-HT2A (h) (agonist site) CEREP ligand profiling.
Chain of 5-hydroxytryptamine receptor 2A (P28223 whole entry): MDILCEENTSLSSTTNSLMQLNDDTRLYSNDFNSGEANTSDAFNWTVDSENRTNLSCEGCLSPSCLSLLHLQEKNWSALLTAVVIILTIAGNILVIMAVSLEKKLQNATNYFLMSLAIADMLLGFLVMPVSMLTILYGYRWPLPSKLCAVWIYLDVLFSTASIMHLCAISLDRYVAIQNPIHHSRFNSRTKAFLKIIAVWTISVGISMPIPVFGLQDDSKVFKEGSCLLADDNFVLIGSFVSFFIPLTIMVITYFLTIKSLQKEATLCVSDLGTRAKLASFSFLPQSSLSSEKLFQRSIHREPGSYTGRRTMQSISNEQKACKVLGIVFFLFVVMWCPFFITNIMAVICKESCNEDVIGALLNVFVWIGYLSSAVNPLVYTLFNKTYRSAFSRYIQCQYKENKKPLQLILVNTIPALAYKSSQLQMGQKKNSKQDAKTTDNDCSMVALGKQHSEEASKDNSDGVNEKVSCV
The target in series [6] is Cholecystokinin receptor type A (Homo sapiens) (UniProt P32238). As to the kind of experiment: CCKA (h) (CCK1) CEREP ligand profiling. The settings on record: Compound concentration 10.0 uM.
For series [7], the target named is Histamine H2 receptor (Homo sapiens) (UniProt P25021). As to the kind of experiment: H2 (h) CEREP ligand profiling. As to conditions: Compound concentration 10.0 uM.
Series [8] concerns the target Neuronal acetylcholine receptor; alpha4/beta2 (Homo sapiens) (UniProt P17787+P43681). Nature of the series: N(neuronal) (α-BGTX-insensitive) (α4β2 nicotinic receptor) CEREP ligand profiling. As to conditions: Compound concentration 10.0 uM.
In series [9] the target is Acetylcholinesterase (Homo sapiens) (UniProt P22303). Nature of the series: Acetylcholinesterase (h) CEREP ligand profiling. The settings on record: Compound concentration 10.0 uM.
Chain of Acetylcholinesterase (Homo sapiens) (P22303 whole entry): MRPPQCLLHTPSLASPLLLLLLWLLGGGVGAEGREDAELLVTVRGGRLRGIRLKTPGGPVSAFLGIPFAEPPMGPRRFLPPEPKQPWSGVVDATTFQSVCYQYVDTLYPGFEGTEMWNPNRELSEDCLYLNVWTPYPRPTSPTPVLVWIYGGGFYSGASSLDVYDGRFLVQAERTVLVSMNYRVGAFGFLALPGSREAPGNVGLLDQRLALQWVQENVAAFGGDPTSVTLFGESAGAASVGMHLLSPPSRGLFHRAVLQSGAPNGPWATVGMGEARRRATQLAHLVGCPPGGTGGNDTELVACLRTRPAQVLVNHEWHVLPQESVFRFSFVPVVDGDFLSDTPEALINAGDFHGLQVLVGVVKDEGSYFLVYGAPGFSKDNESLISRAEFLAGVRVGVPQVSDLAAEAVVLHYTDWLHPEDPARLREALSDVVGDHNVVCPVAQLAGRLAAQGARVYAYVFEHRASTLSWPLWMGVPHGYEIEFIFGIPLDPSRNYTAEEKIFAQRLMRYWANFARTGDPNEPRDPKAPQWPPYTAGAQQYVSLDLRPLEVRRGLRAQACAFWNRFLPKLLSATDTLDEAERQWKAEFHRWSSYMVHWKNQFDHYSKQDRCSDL
Series [10] has as its target T1, 5-hydroxytryptamine receptor 3A (Homo sapiens) (UniProt P46098).
T1 sequence (whole entry): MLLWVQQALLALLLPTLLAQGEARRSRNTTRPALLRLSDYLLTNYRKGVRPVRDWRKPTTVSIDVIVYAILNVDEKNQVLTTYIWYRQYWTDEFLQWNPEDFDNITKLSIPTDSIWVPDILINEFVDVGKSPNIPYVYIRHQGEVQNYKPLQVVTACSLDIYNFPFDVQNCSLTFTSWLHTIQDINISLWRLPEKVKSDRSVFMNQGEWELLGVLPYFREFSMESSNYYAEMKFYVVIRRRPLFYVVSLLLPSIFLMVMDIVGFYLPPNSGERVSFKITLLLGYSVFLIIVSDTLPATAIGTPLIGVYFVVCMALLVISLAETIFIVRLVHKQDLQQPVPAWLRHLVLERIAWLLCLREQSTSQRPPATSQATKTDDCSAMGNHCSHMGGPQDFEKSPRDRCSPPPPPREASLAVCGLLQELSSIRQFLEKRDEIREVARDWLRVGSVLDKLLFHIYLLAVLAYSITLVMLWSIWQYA
As to the kind of experiment: 5-HT3 (h) CEREP ligand profiling. The settings on record: Compound concentration 10.0 uM.

In series [11] the target is T2, Fatty-acid amide hydrolase 1 (Homo sapiens, UniProt O00519). As to the kind of experiment: Glutamate dehydrogenase-coupled FAAH assay (preincubation time 60 min).
T2 sequence (O00519 whole entry): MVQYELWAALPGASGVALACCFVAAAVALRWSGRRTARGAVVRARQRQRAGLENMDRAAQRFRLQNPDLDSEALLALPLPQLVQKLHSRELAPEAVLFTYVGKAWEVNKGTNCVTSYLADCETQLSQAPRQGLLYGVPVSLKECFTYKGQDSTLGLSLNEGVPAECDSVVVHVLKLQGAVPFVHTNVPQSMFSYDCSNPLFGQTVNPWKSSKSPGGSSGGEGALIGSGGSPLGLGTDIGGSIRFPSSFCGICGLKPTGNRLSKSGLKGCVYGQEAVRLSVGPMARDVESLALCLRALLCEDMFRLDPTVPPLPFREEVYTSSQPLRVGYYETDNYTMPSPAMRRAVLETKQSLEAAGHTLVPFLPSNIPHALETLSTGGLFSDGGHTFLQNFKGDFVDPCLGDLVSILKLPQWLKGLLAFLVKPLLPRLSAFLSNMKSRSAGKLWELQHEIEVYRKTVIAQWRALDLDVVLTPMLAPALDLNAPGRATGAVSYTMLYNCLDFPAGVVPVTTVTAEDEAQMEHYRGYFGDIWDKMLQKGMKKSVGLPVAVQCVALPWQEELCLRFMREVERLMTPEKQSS
Series [12] has as its target Mitogen-activated protein kinase 14 (Homo sapiens) (UniProt Q16539). As to the kind of experiment: p38alpha kinase (h) CEREP ligand profiling. As to conditions: Compound concentration 10.0 uM.
Series [13] deals with T3, Muscarinic acetylcholine receptor M1 (Homo sapiens) (UniProt P11229).
T3 sequence (whole entry): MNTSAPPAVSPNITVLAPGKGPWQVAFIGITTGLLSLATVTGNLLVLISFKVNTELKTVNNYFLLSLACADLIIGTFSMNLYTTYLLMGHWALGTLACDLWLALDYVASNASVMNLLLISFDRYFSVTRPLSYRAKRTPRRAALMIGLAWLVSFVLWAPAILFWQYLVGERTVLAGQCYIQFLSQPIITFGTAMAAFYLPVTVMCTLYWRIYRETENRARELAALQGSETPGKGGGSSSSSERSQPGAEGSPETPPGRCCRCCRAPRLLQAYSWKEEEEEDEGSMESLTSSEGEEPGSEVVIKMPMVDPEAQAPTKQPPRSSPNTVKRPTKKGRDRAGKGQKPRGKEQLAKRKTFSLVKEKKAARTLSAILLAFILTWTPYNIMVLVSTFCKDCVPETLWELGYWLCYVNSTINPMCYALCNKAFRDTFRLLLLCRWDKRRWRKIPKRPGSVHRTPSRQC
Nature of the series: M1 (h) CEREP ligand profiling. As to conditions: Compound concentration 10.0 uM.

Series [14] has as its target Delta-type opioid receptor (Homo sapiens) (UniProt P41143). As to the kind of experiment: delta2 (h) (DOP) CEREP ligand profiling. As to conditions: Compound concentration 10.0 uM.
The target in series [15] is Sodium/potassium-transporting ATPase (Homo sapiens) (UniProt P05023+P14415+P05026+P50993+P54709+P13637+Q13733+P54710). Nature of the series: ATPase (Na+/K+) CEREP ligand profiling. The series is classed as protein-complex assay. The settings on record: Compound concentration 10.0 uM.
In series [16] the target is Glutamate receptor ionotropic, kainate 2 (Homo sapiens) (UniProt Q13002). As to the kind of experiment: Kainate CEREP ligand profiling. As to conditions: Compound concentration 10.0 uM.
Series [17] has as its target Alpha-1A adrenergic receptor (Homo sapiens) (UniProt P35348). As to conditions: Compound concentration 10.0 uM.
Series [18] has as its target T4, 5-hydroxytryptamine receptor 2C (Homo sapiens) (UniProt P28335).
T4 sequence (whole entry): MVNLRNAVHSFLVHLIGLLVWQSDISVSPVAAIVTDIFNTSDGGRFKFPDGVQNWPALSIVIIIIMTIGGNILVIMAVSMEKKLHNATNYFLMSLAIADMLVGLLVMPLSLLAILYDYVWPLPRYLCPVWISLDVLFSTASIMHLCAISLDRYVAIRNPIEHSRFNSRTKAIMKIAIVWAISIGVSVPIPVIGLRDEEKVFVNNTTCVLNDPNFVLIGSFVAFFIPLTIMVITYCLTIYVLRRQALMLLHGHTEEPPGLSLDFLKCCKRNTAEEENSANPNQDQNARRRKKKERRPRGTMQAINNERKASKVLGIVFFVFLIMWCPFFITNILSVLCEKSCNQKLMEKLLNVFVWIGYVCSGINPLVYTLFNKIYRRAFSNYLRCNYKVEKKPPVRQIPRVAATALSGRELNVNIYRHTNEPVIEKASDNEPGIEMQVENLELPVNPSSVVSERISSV
As to the kind of experiment: 5-HT2C (h) (agonist site) CEREP ligand profiling. As to conditions: Compound concentration 10.0 uM.

Series [19] has as its target Phosphodiesterase 3 (Homo sapiens) (UniProt Q14432+Q13370). Nature of the series: PDE 3 (h) CEREP ligand profiling. The series is classed as protein assay. As to conditions: Compound concentration 10.0 uM.
In series [20] the target is D(1A) dopamine receptor (Homo sapiens) (UniProt P21728). Nature of the series: D1 (h) CEREP ligand profiling. As to conditions: Compound concentration 10.0 uM.
Series [21] deals with GABA-A receptor; anion channel (Homo sapiens) (UniProt P14867+P47870+P18507+P28472+P48169+Q99928+Q9UN88+P34903+O00591+O14764+Q8N1C3+P18505+P78334+P47869+P31644+Q16445). Nature of the series: GABAA CEREP ligand profiling. It is filed as protein-complex assay. As to conditions: Compound concentration 10.0 uM.
The nature of series [22]: CI channel CEREP ligand profiling.
The target of series [23] is Adrenergic receptor alpha-1 (Homo sapiens) (UniProt P35348+P25100+P35368). As to the kind of experiment: alpha1 (non-selective) CEREP ligand profiling. The series is classed as protein assay. As to conditions: Compound concentration 10.0 uM.
Series [24] concerns the target T2, Fatty-acid amide hydrolase 1. As to the kind of experiment: Binding assay. Also noted: compound concentration 10 uM.

pKi: −log10 of the molar value. Active and inactive are the calls of the source. The calls are words filed in the database; no cut-off is given here. A value given as a limit tells only on which side of the number the result lay.

Chain of Cannabinoid receptor 1 (P21554 whole entry): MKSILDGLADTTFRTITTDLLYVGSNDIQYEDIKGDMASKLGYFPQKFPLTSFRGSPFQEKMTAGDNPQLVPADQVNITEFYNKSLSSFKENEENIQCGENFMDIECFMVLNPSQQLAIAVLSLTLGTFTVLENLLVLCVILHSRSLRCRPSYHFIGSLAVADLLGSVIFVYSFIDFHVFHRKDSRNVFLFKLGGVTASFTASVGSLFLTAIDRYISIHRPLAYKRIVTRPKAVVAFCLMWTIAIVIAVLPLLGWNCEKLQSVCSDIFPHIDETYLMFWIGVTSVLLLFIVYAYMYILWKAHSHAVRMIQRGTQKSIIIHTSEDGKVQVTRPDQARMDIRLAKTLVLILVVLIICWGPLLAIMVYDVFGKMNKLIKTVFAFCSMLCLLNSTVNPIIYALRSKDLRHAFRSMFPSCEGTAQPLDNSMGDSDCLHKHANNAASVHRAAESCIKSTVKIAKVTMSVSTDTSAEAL
Chain of Delta-type opioid receptor (Homo sapiens) (P41143 whole entry): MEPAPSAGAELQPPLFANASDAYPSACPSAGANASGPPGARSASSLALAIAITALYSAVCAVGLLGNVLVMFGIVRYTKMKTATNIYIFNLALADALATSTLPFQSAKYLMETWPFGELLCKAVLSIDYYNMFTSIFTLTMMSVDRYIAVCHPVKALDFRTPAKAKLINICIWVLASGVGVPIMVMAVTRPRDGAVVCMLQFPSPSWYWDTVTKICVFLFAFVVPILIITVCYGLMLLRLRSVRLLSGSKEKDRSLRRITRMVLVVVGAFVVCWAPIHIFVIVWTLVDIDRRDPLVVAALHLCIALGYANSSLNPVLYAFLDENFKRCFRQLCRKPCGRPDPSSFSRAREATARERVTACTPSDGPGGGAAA
Chain of Voltage-dependent N-type calcium channel subunit alpha-1B (Homo sapiens) (Q00975 whole entry, looked up): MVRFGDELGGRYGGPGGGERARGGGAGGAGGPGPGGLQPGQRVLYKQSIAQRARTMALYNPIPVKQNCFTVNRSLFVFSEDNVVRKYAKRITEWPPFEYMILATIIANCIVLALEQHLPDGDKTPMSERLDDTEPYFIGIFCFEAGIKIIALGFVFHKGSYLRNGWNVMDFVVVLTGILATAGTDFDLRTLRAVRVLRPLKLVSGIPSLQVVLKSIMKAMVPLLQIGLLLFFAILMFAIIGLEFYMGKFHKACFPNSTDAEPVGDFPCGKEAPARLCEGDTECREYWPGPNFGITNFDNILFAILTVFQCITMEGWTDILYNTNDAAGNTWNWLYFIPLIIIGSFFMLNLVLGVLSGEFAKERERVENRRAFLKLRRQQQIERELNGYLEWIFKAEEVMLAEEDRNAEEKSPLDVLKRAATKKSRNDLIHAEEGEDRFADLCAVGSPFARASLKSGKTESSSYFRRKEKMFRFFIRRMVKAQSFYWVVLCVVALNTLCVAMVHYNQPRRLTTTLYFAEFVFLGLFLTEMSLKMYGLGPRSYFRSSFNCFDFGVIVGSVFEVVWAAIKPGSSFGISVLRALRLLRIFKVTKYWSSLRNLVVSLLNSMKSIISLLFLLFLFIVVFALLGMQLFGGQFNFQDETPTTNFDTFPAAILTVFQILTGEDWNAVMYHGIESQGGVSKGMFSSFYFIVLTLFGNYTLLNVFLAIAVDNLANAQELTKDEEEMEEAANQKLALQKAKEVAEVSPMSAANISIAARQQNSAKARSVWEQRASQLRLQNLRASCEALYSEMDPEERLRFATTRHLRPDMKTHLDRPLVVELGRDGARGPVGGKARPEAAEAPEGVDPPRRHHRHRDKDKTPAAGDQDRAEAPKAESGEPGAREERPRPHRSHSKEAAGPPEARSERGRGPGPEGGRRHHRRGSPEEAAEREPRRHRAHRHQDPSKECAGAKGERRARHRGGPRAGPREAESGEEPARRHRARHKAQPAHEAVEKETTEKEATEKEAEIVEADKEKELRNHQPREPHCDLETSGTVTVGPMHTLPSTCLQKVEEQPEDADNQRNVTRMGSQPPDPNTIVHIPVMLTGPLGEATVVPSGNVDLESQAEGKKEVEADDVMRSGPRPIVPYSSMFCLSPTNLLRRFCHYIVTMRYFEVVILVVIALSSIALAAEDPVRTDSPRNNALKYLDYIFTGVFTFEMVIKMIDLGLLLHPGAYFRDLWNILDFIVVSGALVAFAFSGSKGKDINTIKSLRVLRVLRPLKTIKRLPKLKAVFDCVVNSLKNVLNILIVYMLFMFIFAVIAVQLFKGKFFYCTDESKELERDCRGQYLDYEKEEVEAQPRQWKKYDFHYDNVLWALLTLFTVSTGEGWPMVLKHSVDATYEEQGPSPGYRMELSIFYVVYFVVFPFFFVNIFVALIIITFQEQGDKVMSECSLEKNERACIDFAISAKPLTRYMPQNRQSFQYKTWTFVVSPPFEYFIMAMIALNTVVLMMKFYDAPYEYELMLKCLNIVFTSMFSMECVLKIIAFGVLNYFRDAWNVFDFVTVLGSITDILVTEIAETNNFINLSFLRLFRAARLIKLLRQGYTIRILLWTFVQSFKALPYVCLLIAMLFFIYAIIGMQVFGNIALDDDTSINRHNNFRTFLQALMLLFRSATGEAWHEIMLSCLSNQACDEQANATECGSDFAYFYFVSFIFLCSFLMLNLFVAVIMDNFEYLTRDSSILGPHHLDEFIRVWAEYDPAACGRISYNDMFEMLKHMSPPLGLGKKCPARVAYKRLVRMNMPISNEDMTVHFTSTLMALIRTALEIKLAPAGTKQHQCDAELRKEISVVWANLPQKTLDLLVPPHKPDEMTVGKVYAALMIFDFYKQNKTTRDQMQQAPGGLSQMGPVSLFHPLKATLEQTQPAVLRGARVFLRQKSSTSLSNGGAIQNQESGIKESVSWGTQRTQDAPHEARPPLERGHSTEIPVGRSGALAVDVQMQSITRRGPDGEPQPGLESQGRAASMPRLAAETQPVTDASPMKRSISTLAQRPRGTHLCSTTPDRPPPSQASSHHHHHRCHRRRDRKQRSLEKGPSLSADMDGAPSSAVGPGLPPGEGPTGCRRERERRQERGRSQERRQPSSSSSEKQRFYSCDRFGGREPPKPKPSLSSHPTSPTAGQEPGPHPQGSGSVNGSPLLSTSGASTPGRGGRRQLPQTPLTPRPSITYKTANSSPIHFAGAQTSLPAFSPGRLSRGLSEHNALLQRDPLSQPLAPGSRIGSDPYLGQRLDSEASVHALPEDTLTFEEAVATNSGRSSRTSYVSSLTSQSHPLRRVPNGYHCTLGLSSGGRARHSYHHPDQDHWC

Regarding `O=C(Nc1cccnn1)N1CCC(=Cc2cccc(Oc3ccc(C(F)(F)F)cn3)c2)CC1`, the inhibition at 10 µM in [1] is on record as 1% (not active). Besides, the inhibition in series [2] was 12.3%; in series [3], -1%; in [4], -5%; at Cannabinoid receptor 1 (Compound concentration 10.0 uM) it was 55%; in [5] (Compound concentration 10.0 uM) it was 57%; in [6] it was -10%. Also, the inhibition is -6% in [7]; 8% in series [8]; 10% in [9]; -8% in series [10]; 1% in series [12]; 36% in series [13]. The inhibition in series [14] is 2%; in series [15], -2%; in series [16] it was 2%; in series [17], 10.3%; in [18], -3%; in [19], 10%. In addition, the inhibition in [20] was 3%; in series [21], -4%; in series [22] (Compound concentration 10.0 uM) it was 78%; in series [23], -2%. For the same compound, the negative-log Ki (pKi) on Cannabinoid receptor 1 is 4.85; in series [5] it was 5.80; in series [22], 5.52. In addition, in series [11], the half-maximal inhibitory concentration (IC50) is 0.0074 µM (active).
Consider `O=C(Nc1cccnn1)N1CC(C/C=C/c2cncc(Oc3ccc(C(F)(F)F)cn3)n2)C1`, for which the half-inhibitory concentration (IC50) in [24] is on record as > 100 µM (not active).

In general, inhibition refers to the change of the read-out against control, counted positive when it falls. Usually pKi stands for the negative decadic logarithm of the Ki, by convention in mol/L. Low values mean a high Ki, high ones a low Ki. The IC50 is the midpoint of a concentration-inhibition curve.

The values are drawn from ChEMBL document CHEMBL4507297, “Data for DCP probe PF-04457845” (2021).
